What all share (assay): Bliss excess, mean over the matrix (fraction); higher = more synergy
One experiment has as its system NCI-H2052 (Mesothelioma). In a few lines:
(§1)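 After 24 hours at 37°C and 5% CO2 in 1536-well plates, cells in DMEM/F12 or RPMI plus 10% FBS received two-drug dose matrices for 72 hours. Viability came from CellTiter-Glo 2.0 luminescence and was scaled as inhibition, anchored at 0 by vehicle wells and at 1 by blank wells. Combination Emax is taken as the second-highest inhibition in the matrix, and Bliss excess as the observed combination effect less EA + EB − EA·EB, with EA and EB the single-agent effects.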

The test system of experiment [1] is SW1710 (Bladder Carcinoma). In a few lines:
as §1

For a further experiment, the system named is BPH-1 (Non-Cancerous). In a few lines: as §1
Experiment [2] deals with NUGC-4 (Gastric Carcinoma). The method in brief:
as §1

Experiment [3] has as its system SAS (Oral Cavity Carcinoma). In a few lines: as §1
For experiment [4], the system named is ESS-1 (Other Solid Carcinomas). The method in brief:
as §1

The test system of experiment [5] is SW1573 (Lung Adenocarcinoma). The method in brief: as §1
Experiment [6] concerns BFTC-909 (Kidney Carcinoma). The method in brief: as §1
The test system of experiment [7] is HuCCT1 (Biliary Tract Carcinoma). The method in brief: as §1
Experiment [8] concerns OVCAR-5 (Ovarian Carcinoma). In a few lines:
as §1

The test system of the next experiment is A673 (Ewing's Sarcoma). The method in brief: as §1
Experiment [9] deals with LCLC-97TM1 (Non-Small Cell Lung Carcinoma). The method in brief:
as §1

Experiment [10] deals with OV-56 (Ovarian Carcinoma). In a few lines:
as §1

The subject of experiment [11] is HH (T-Cell Non-Hodgkin's Lymphoma). In a few lines: as §1
In experiment [12] the test system is KMRC-20 (Kidney Carcinoma). The method in brief:
as §1

The next experiment has as its system MPP-89 (Mesothelioma). In a few lines:
as §1

In another experiment the test system is LOXIMVI (Melanoma). The method in brief:
as §1

The test system of experiment [13] is ALL-PO (B-Lymphoblastic Leukemia). The method in brief: as §1
Experiment [14] concerns KYAE-1 (Esophageal Adenocarcinoma). The method in brief:
as §1

The subject of experiment [15] is WSU-NHL (B-Cell Non-Hodgkin's Lymphoma). In a few lines: as §1

Among the data in the supplement of paper PMC11061612 are Bliss excess values, retold here.

In the case of `COc1cccc(OCCCN)c1-c1cc(Nc2cnc(C#N)cn2)n[nH]1` [Prexasertib] + C=CCn1c(=O)c2cnc(Nc3ccc(N4CCN(C)CC4)cc3)nc2n1-c1cccc(C(C)(C)O)n1 [AZD1775] (first compound max 1 µM, partner max 1 µM), the Bliss excess with NCI-H2052 (Mesothelioma) is 0.0221; in experiment [1], 0.12; in the experiment with BPH-1 (Non-Cancerous), 0.115; in experiment [2] it was 0.0569; in experiment [3], 0.0405; in experiment [4] it was 0.0299. The Bliss excess came to 0.0456 in experiment [5]; 0.11 in experiment [6]; 0.0261 in experiment [7]; 0.044 in experiment [8]; 0.0752 in the experiment with A673 (Ewing's Sarcoma); 0.057 in [9]. In addition, the Bliss excess is -0.0015 in experiment [10]; 0.0872 in experiment [11]; -0.0104 in [12]; 0.0912 in the experiment with MPP-89 (Mesothelioma); 0.0467 with LOXIMVI (Melanoma); 0.0744 in experiment [13]. Moreover, the Bliss excess was found to be 0.103 in [14] and 0.0303 in [15].
Turning to `NC1(C(=O)N[C@@H](CCO)c2ccc(Cl)cc2)CCN(c2ncnc3[nH]ccc23)CC1` [Capivasertib] + CCN(CCO)CCCOc1ccc2c(Nc3cc(CC(=O)Nc4cccc(F)c4)[nH]n3)ncnc2c1 [AZD2811] (first compound max 10 µM, 7x7, partner max 1 µM), the Bliss excess in the experiment on NCI-H2052 (Mesothelioma) was 0.0076; in experiment [1], -0.0507; in the experiment on BPH-1 (Non-Cancerous), 0.0118; in [2] it was -0.0543; in [3], -0.0264; in experiment [4], 0.0203. In addition, the Bliss excess is -0.0197 in experiment [5]; 0.0366 in experiment [6]; 0.0051 in experiment [7]; -0.0223 in [8]; -0.0158 with A673 (Ewing's Sarcoma); 0.0429 in experiment [9]. The Bliss excess in [10] was -0.0077; in [11], -0.0221; in [12], -0.015; in the experiment on MPP-89 (Mesothelioma), -0.0481; in the experiment on LOXIMVI (Melanoma) it was -0.0072; in experiment [13] it was -0.0254. For the same molecule, the Bliss excess is 0.0023 in [14] and -0.0697 in experiment [15].
Turning to `Cc1c2c(nn1C)CSCc1cc(n(C)n1)CSc1cc(c3ccccc3c1)OCCCc1c(C(=O)O)n(C)c3c-2c(Cl)ccc13` [AZD5991] + CCN(CCO)CCCOc1ccc2c(Nc3cc(CC(=O)Nc4cccc(F)c4)[nH]n3)ncnc2c1 [AZD2811] (first compound max 1 µM, 7x7, partner max 1 µM), the Bliss excess was -0.0253 in the experiment with NCI-H2052 (Mesothelioma); 0.0088 in experiment [1]; 0.0077 in the experiment with BPH-1 (Non-Cancerous); -0.0092 in [3]; -0.0014 in experiment [4]; 0.0108 in [5]. Also, the Bliss excess in [6] was 0.0156; in [7], 0.0128; in experiment [8], -0.0434; with A673 (Ewing's Sarcoma), 0.0886; in experiment [9] it was 0.0885; in experiment [10], 0.0421. The Bliss excess in experiment [11] was -0.049; in experiment [12], 0.0023; in the experiment on MPP-89 (Mesothelioma), 0.0367; in the experiment on LOXIMVI (Melanoma) it was 0.0212; in [13], -0.0077; in [14], 0.0422. The Bliss excess in experiment [15] was -0.0206.
As to `Cc1c2c(nn1C)CSCc1cc(n(C)n1)CSc1cc(c3ccccc3c1)OCCCc1c(C(=O)O)n(C)c3c-2c(Cl)ccc13` [AZD5991] + CN(C)CCCOc1ccc(-c2ccc3ncc4c(c3c2)n(C2CCOCC2)c(=O)n4C)cn1 [AZD0156] (first compound max 1 µM, 7x7, partner max 1 µM), the Bliss excess is -0.0027 with NCI-H2052 (Mesothelioma); -0.0134 in experiment [1]; 0.0896 in the experiment on BPH-1 (Non-Cancerous); -0.0305 in experiment [2]; 0.0142 in experiment [3]; 0.0027 in experiment [4]. For the same molecule, the Bliss excess in [5] is -0.0245; in experiment [6], 0.0101; in experiment [7], -0.04; in experiment [8], -0.024; in the experiment with A673 (Ewing's Sarcoma) it was 0.0293; in [9] it was -0.0018. Also, the Bliss excess in experiment [10] was -0.0276; in experiment [11], -0.0248; in experiment [12], -0.0036; in the experiment on LOXIMVI (Melanoma), 0.0016; in [13], -0.0005; in experiment [14], -0.0009. The Bliss excess in [15] was -0.0375.
On to `C=CCn1c(=O)c2cnc(Nc3ccc(N4CCN(C)CC4)cc3)nc2n1-c1cccc(C(C)(C)O)n1` [AZD1775] + C1CN(CCC1(C(=O)N[C@@H](CCO)C2=CC=C(C=C2)Cl)N)C3=NC=NC4=C3C=CN4 [Capivasertib] (first compound max 3 µM, partner max 3 µM), for which the Bliss excess in the experiment with NCI-H2052 (Mesothelioma) is -0.0369; in [1], 0.0334; in the experiment with BPH-1 (Non-Cancerous), -0.0371; in [2], -0.14; in [3], -0.0206; in experiment [4] it was -0.0251. Also, the Bliss excess in experiment [5] was -0.0229; in experiment [6], -0.0004; in experiment [8], -0.0923; in the experiment with A673 (Ewing's Sarcoma) it was 0.018; in experiment [9], -0.0545; in experiment [10] it was -0.0263. The Bliss excess in [11] is -0.144; in [12], -0.0646; in the experiment with MPP-89 (Mesothelioma), -0.0704; in the experiment with LOXIMVI (Melanoma) it was 0.0764; in [13] it was -0.0134; in experiment [14], -0.0284. In experiment [15], the Bliss excess is -0.0271.
With `CN(CCO)CC[C@H](CSc1ccccc1)Nc1ccc(S(=O)(=O)NC(=O)c2ccc(N3CCC([C@@H](O)c4ccccc4-c4ccc(Cl)cc4)CC3)cc2)cc1S(=O)(=O)C(F)(F)F` [AZD4320] + C=CCn1c(=O)c2cnc(Nc3ccc(N4CCN(C)CC4)cc3)nc2n1-c1cccc(C(C)(C)O)n1 [AZD1775] (first compound max 1 µM, partner max 1 µM), the Bliss excess with NCI-H2052 (Mesothelioma) was 0.0004; in experiment [1], -0.0047; in the experiment with BPH-1 (Non-Cancerous), 0.0378; in experiment [2], -0.0217; in [3] it was 0.05; in experiment [4], 0.002. Moreover, the Bliss excess in [5] is 0.0152; in experiment [6], 0.0577; in experiment [7], -0.0514; with A673 (Ewing's Sarcoma), 0.082; in experiment [9], 0.0015; in [10], -0.0113. Further, the Bliss excess in [11] was 0.0911; in experiment [12], 0.0331; in the experiment with MPP-89 (Mesothelioma), 0.0351; with LOXIMVI (Melanoma) it was 0.0203; in experiment [13], 0.0631; in experiment [14] it was 0.032. Besides, the Bliss excess in [15] was -0.0242.
With `Cc1c2c(nn1C)CSCc1cc(n(C)n1)CSc1cc(c3ccccc3c1)OCCCc1c(C(=O)O)n(C)c3c-2c(Cl)ccc13` [AZD5991] + CC1(C)CCC(CN2CCN(c3ccc(C(=O)NS(=O)(=O)c4ccc(NCC5CCOCC5)c([N+](=O)[O-])c4)c(Oc4cnc5[nH]ccc5c4)c3)CC2)=C(c2ccc(Cl)cc2)C1 [Venetoclax] (first compound max 1 µM, 7x7, partner max 1 µM), the Bliss excess in the experiment on NCI-H2052 (Mesothelioma) is 0.0269; in [1], -0.019; with BPH-1 (Non-Cancerous), -0.0148; in experiment [2] it was -0.0621; in experiment [3], 0.0098; in experiment [4], -0.0082. Further, the Bliss excess in experiment [5] is -0.0549; in [6] it was -0.0001; in [7] it was -0.0557; in experiment [8], -0.0365; in the experiment on A673 (Ewing's Sarcoma), 0.0666; in [9], -0.023. Also, the Bliss excess in [10] is 0.0077; in experiment [11] it was 0.0016; in experiment [12], -0.0206; with MPP-89 (Mesothelioma), -0.0065; in the experiment with LOXIMVI (Melanoma) it was -0.0182; in [14], 0.0049. The Bliss excess in experiment [15] was 0.0602.
